Assay results as given in patent US8785434B2, “Antiviral compounds” (Prosetta Antiviral Inc., priority 2010, dated 2014).

Test system: respiratory viruses (Corona Virus on MRC5 Cells, Influenza Virus A on MDCK Cells, Respiratory Syncytial Virus on HEp2 cells, Adenovirus serotype 5 on A549 …)
Assay: Respiratory viruses: virus grown in the presence of compound, infectious virus titrated by TCID50
Type: cell-based
Conditions: qualitative statement; compound tested at 10 μM, 2 μM, 0.4 μM and 0.08 μM
Method: The activities of compounds of the invention were determined for the following viruses using the protocol below:
Corona Virus on MRC5 Cells
Influenza Virus A on MDCK Cells
Respiratory Syncytial Virus on HEp2 cells
Adenovirus serotype 5 on A549 cells
Human Rhinovirus on H1Hela Cells
Herpes Simplex Virus 1 on Vero cells
Virus was grown in the presence of four dilutions (10 μM, 2 μM, 0.4 μM and 0.08 μM) of the chemical compound tested with two controls using standard methods and materials for the relevant virus. The infected cell extract was collected using known methods, and the infectious virus concentration was determined using standard techniques.
Each well was titrated by TCID50. Four serial dilutions in quadruplicate required to determine the titer of each well. To assay 36 replicates as directed, one hundred eight (108) 96-well plates will be required. Each drug was tested at four dilutions against one virus will require TCID50 titers of 18 sample wells.

Cc1cc(N(C)C)cc2[s+]c3cc(N4CCN(C)CC4)cc(C)c3nc12.[I-] [3-(Dimethylamino)-1,9-dimethyl-7-(4-methylpiperazin-1-yl)phenothiazin-5-ium iodide]
activity across all of the respiratory viruses tested (pan-respiratory anti-viral activity): surprisingly strong activity across all of the respiratory viruses tested
